Experimental data published in patent US20250235543A1, “MODIFIED PROTEINS AND PROTEIN DEGRADERS” (Cullgen (Shanghai), Inc., priority 2021, published 2025).
pKd: −log10 of the molar value.

Experiments:
CDK4 = molecular target: T1, CDK4 (Homo sapiens, UniProt P11802); test: CDK4 percentage degradation in Calu-1 cells (immunoblotting); type: cell-based; conditions: Calu-1 cells, 200 nM, 16 hours; read-out: CDK4 Degradation (200 nM)
T1 construct: endogenous in cells; host or cells: Calu-1
Method in brief: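 CDK4 degradation was measured by immunoblotting. Cells were washed in cold PBS and lysed in RIPA buffer with inhibitors for 30 min at 4° C., then spun at 13,000 rpm to clear. After BCA protein determination, lysates were heated at 99° C. for 5 min in Laemmli buffer, resolved on SDS-PAGE, imaged on a ChemiDoc MP with ECL substrate, and band intensities quantified.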

cyclin D1 = test: Cyclin D1 percentage degradation in Calu-1 cells (immunoblotting); type: cell-based; conditions: 200 nM, 16 hours
Method in brief: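 Cyclin D1 degradation was assessed by western blot. Clarified lysates, obtained by RIPA lysis with inhibitors and centrifugation at 13,000 rpm, were normalized by BCA protein assay and separated by SDS-PAGE. Bands were detected with Western ECL Substrate on a Bio-Rad ChemiDoc MP Imaging system and quantified in Image Lab software to derive percentage degradation.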

[1] = test system: cyclin D1, cyclin D2, cyclin D3; test: Immunoblot of cyclin D protein levels in Calu-1 (and BT-549) cells; type: cell-based; conditions: 16 hours; for decrease of degradation potency versus corresponding active compound: Calu-1 cells, CPD-042 vs CPD-002, CPD-049 vs CPD-031
Description: Specific exemplary heterobifunctional compounds were characterized in Calu-1, BT-549 and other cells. Cells that express cyclin D1-3 and CDK4/6 proteins were treated with heterobifunctional compounds disclosed herein at indicated concentrations for 16 hours. Cells were collected, lysed and subject to immunoblotting using an antibody specific to cyclin D1, cyclin D2, cyclin D3, CDK4, CDK6 or phosphorylated R^b proteins. Tubulin or GAPDH was used as the loading control. DMSO treatment was used as the negative control.
In a time-course study, Calu-1 cells were treated with 500 nM CPD-002, or 100 nM CPD-031 for indicated period of time prior to immunoblotting (FIG. 4A-4B).
The heterobifunctional compound-mediated degradation was dependent on the ubiquitin-proteasome system and cullin E3 ligase. […] In addition, DDB1 E3 ligase was critical for the degrader-induced cyclin D downregulation. Depletion of DDB1 using CRISPR-Cas9 technology attenuated the cyclin D degradation induced by CPD-031 (FIG. 5C).
(§1) To verify that heterobifunctional compound-mediated degradation is dependent on the binding to CDK4-cyclin D complex, we designed three negative control compounds, CPD-042, CPD-049 and CPD-380, which are derived from CPD-002 CPD-031 and CPD-343, respectively. These three control compounds bear the same DDB1 ligand and linker as their corresponding active heterobifunctional compounds but with modified warheads to impair the binding of the control compounds to CDK4. […] However, the binding to CDK4 is not sufficient for cyclin D degradation. Two cereblon (CRBN)-recruiting reference heterobifunctional compounds, CP-10 (Su, J Med Chem, 2019; CAS No.: 2366268-80-4) and BSJ-03-123 (Brand, Cell Chem Biol, 2019; CAS No.: 2361493-16-3) were analyzed in Calu-1 cells.

[2] = test system: cyclin D1, cyclin D2, cyclin D3, CDK4 and CDK6; test: Immunoblotting of cyclin D and CDK4/6 protein levels in BT-549 cells; type: cell-based; conditions: indicated concentrations, 16 hours
Description: (§2) Calu-1 (FIG. 2A) or BT-549 (FIG. 2B) cells were treated with CPD-002, CPD-004, or palbociclib at indicated concentrations for 16 hours.
(§3) Cultured cells were washed with cold PBS once and lysed in cold RIPA buffer supplemented with protease inhibitors and phosphatase inhibitors (Beyotime Biotechnology). The solutions were then incubated at 4° C. for 30 min with gentle agitation to fully lysed cells. Cell lysates were centrifuged at 13,000 rpm for 10 min at 4° C. and pellets were discarded. Total protein concentrations in the lysates were determined following BCA assays (Beyotime Biotechnology). Cell lysates were mixed with Laemmli loading buffer and heated at 99° C. for 5 min. Proteins were resolved on SDS-PAGE and visualized using Western ECL Substrate kits on a ChemiDoc MP Imaging system (Bio-Rad). Protein bands were quantitated using the Image Lab software provided by Bio-Rad.

[3] = test system: cyclin D1, cyclin D2, cyclin D3, CDK4 and CDK6; test: Immunoblotting of cyclin D and CDK4/6 protein levels in Calu-1 cells; type: cell-based; conditions: for degradation potencies compared with corresponding active heterobifunctional compounds: dose range, negative control compounds
Description: as §2
Calu-1 cells were treated with CPD-031 at indicated concentrations for 16 hours.
Calu-1 cells were treated with CPD-002 or CPD-031 at 500 nM or 100 nM, respectively for indicated period of time.
Calu-1 cells were pre-treated with DMSO, 20 μM MG-132 (MG), 5 μM MLN4924 (MLN) or 1 μM TAK-243 (TAK) for 2 hours, and subsequently incubated with 500 nM CPD-002, 500 nM CPD-004, or 100 nM CPD-031 for another 4 h or 2 h prior to immunoblotting (FIG. 5A-5B).
Calu-1 cells were treated with a dose range of negative control compounds CPD-042 or CPD-049 for 16 hours (FIG. 6A-6B).
Calu-1 cells were treated with reference compounds CP-10 or BSJ-03-123 at indicated concentrations for 8 hours.
as §3

DDB1 [4] = molecular target: T2, DDB1 (Homo sapiens, UniProt Q16531, D705G/DEL396-460/DEL463-701/I704S/T703N); test: SPR binding assay to immobilized DDB1ΔBPB; conditions: binding affinities to DDB1
T2 construct: His6 (N, cleaved yes); TEV protease cleavage site (N, cleaved yes); made in house; host or cells: SF9 insect cells, Bac-to-Bac baculovirus, pFastBacHTB vector
Description: The binding affinities of heterobifunctional compounds to DDB1 were determined by SPR assay (FIG. 1A-1B). Purified DDB1ΔBPB proteins were immobilized on a CM5 sensor chip, and a dose range of compound solutions were injected in multi-cycle kinetic format. Data were fit to a steady state model to provide equivalent dissociation constants (Kd).
Human DDB1ΔBPB (UniProt: Q16531. BPB domain, aa 396 to 705, is replaced with a GNGNSG linker) coding sequences were cloned into pFastBacHTB vector and were expressed in SF9 cells using Bac-to-Bac baculovirus expression system (Thermo Fisher Scientific). The expression constructs include an N-terminal His6-tag to facilitate the purification, and a TEV protease cleavage site in between. DDB1ΔBPB proteins were obtained from supernatant of cell lysates and purified through sequential application of Ni affinity column (Ni-NTA column, Bio-Rad) and size-exclusion column (Superdex 200 16/600GL column, GE Healthcare) chromatography. Protein tags were cleaved off by TEV protease, and the resulting untagged proteins were further purified by Ni affinity column. Purified proteins were verified by immunoblotting, analytic SEC, and LC-MS.
SPR studies were performed on a Biacore X100 plus instrument (GE Healthcare). Immobilization of purified DDB1ΔBPB was carried out at 25° C. using a CM5 sensor chip. The surface was pre-equilibrated in HBS-EP running buffer (10 mM HEPES, pH7.4, 150 mM NaCl, 3 mM EDTA, 0.05% P20), before it was activated with EDC/NHS. DDB1ΔBPB proteins were immobilized by amine coupling to a density of 10,000-12,000 resonance units (RUs) on flow cell FC2, whereas flow cell FC1 was used as reference. Both protein immobilized and reference surfaces were deactivated with 1M ethanolamine. All interaction experiments were performed at 25° C. Test compounds were prepared and serially diluted in HBS-EP running buffer containing final 5% DMSO (6-point two-fold serial dilution, 100 μM-3.125 μM final concentration of compounds). Compound solutions were injected individually in multi-cycle kinetic format without regeneration (flow rate 30 μl/min, association time 120 s, dissociation time 120 s). Sensorgrams from reference surfaces and blank injections were subtracted from the raw data (double-referencing) and the data was solvent-corrected prior to analysis. All data were fit to steady state affinity model using Biacore Evaluation Software to provide equivalent dissociation constants (Kd).

[5] = test system: Rb phosphorylation, cleaved caspase-3; test: Immunoblotting of downstream Rb phosphorylation and cleaved caspase-3 in Calu-1 or BT-549 cells; type: cell-based; conditions: 16 hours
Description: as §2, §3

DDB1 [6] = molecular target: T2, DDB1; test: Surface plasmon resonance (SPR) binding of heterobifunctional compounds to DDB1; conditions: purified DDB1ΔBPB immobilized on CM5 chip, multi-cycle kinetic format, steady state model, read-out: binding affinities (Kd) to DDB1
Description: To determine whether the addition of linkers and target binders to the DDB1 ligands affected the binding to DDB1 E3 ligase, the binding affinities of heterobifunctional compounds to DDB1 was evaluated using a surface plasmon resonance (SPR) assay. Purified DDB1ΔBPB proteins were immobilized on a CM5 sensor chip and a dose range of compound solutions were injected in multi-cycle kinetic format. Data was fit to steady state model and gave equivalent dissociation constants (Kd).

Calu-1 = test: Cell viability assay, Calu-1; type: cell-based; conditions: Calu-1 cells, 96-well plates, serial dilution, 3 days
Description: Cells were treated with CDK4/6 inhibitors palbociclib, ribociclib, or abemaciclib, or heterobifunctional compounds CPD-002 or CPD-031 following a 9-point serial dilution for 3 days.
Cells were seeded at a density of 2,000-5,000 cells per well in 96-well assay plates and treated with test compounds following a 10-point serial dilution for 3-6 days. Cell viability was determined using the CellTiter-Lumi assay kit according to the manufacturer's instructions. The dose-response curves were determined and IC50 values were calculated using the GraphPad Prism software following a nonlinear regression (least squares fit) method. Data presented was mean±standard deviation (SD) unless otherwise indicated.

Calu-1 cells = test: Anti-viability / anti-proliferation in Calu-1 cells; type: cell-based; conditions: CPD-042 vs CPD-002, CPD-049 vs CPD-031
Description: FIG. 6 show immunoblots of cyclin D1, cyclin D2, cyclin D3, and CDK4 proteins expressed by Calu-1 cells after treatment with a dose range of control compounds CPD-042 (A), or CPD-049 (B) for 16 hours, and anti-viability curves of Calu-1 cells in the presence of CPD-002 and CPD-042 (C), or CPD-031 and CPD-049 (D).
FIG. 11A-11B show immunoblots of cyclin D1, CDK4, and CDK6 proteins expressed by Calu-1 cells after treatment with a dose range of heterobifunctional reference compound CP-10, or BSJ-03-123 for 8 hours (FIG. 11A), and anti-viability curves of Calu-1 cells in the presence of CP-10, or BSJ-03-123 for 3 days (FIG. 11B).
as §1

T2 sequence (Q16531 other isoform, or with tags, fused parts or gaps DEL396-460/DEL463-701/T703N/I704S/D705G): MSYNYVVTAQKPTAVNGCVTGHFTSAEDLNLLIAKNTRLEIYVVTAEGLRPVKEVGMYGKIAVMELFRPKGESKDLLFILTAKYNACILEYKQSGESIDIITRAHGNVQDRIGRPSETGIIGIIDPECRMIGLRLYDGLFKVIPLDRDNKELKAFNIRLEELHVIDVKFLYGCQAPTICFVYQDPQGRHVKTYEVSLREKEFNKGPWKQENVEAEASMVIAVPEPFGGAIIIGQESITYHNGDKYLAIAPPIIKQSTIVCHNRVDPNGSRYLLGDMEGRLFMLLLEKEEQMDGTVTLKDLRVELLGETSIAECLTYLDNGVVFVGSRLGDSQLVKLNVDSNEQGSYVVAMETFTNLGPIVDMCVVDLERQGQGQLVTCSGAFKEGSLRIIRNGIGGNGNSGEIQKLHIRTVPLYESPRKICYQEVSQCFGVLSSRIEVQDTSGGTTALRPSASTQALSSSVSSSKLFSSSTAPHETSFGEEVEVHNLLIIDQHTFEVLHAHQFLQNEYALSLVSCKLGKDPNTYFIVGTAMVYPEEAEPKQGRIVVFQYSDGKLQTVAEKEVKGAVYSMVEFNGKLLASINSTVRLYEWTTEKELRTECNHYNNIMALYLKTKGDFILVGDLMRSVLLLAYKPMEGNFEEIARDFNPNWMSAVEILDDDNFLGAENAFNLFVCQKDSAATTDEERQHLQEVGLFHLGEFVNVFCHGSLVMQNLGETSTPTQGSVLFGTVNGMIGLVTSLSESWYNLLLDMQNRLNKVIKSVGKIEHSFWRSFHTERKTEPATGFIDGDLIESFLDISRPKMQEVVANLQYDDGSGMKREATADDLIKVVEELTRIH
T1 sequence (P11802 2-303 limits assumed): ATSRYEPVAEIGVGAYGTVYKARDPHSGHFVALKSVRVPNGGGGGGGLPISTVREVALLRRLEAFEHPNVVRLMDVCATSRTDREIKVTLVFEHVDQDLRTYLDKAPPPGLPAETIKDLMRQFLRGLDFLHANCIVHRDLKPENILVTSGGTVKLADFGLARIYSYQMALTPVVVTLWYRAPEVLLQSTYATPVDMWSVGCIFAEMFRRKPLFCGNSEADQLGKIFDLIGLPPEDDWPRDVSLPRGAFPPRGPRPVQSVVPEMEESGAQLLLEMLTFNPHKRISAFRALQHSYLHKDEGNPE
T1 sequence (P24385 whole entry partner): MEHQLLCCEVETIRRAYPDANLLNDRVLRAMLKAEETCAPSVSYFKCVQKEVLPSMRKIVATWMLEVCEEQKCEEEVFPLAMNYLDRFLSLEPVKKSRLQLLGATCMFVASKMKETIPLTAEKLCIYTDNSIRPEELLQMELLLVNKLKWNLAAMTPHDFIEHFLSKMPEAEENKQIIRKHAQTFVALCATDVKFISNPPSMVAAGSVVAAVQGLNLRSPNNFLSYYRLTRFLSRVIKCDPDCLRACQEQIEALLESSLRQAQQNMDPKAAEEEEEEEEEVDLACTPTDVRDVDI
T1 sequence (Q16531 2-1140 limits assumed, further chain): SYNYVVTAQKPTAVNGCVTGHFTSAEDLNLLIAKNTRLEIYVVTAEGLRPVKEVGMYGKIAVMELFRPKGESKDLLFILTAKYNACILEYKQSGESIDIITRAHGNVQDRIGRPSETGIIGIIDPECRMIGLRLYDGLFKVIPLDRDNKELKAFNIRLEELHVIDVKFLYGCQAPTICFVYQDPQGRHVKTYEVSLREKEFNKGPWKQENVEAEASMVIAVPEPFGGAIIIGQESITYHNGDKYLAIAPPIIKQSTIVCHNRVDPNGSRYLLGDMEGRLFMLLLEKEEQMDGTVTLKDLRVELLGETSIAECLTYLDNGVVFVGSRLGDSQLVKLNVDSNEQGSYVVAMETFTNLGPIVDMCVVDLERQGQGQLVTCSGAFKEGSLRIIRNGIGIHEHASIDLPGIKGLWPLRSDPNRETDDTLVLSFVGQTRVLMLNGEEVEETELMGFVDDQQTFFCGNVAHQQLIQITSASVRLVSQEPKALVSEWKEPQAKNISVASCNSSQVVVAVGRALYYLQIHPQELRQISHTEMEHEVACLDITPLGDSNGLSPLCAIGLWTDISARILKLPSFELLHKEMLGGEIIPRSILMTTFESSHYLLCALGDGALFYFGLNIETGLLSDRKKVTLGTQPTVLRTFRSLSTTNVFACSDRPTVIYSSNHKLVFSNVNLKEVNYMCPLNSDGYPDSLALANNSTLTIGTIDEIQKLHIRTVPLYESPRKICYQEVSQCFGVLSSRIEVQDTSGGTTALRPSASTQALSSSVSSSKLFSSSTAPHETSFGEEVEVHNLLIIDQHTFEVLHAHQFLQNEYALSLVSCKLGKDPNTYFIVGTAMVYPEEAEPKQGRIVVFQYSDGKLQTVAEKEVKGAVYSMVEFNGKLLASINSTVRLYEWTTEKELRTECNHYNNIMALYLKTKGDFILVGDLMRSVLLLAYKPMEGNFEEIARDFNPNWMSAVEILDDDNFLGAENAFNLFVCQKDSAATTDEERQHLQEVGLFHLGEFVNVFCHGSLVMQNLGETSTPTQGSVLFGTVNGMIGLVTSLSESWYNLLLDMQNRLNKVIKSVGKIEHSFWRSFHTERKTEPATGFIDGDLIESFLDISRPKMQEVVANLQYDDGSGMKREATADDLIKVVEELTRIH

Row | inhibition at 0.2 µM (CDK4) [%] | pKd (DDB1 [4]) | pKd (DDB1 [6]) | SMILES | CyclinD1 Degradation (200 nM) (cyclin D1) | reduction of cyclin D1, cyclin D2, and cyclin D3 protein levels ([1]; immunoblot, Calu-1 / BT-549 cells, dose range) | cyclin D1, cyclin D2, cyclin D3, CDK4 and CDK6 protein levels [2] | cyclin D degradation after pretreatment with MG-132, MLN4924 or TAK-243 ([3]; 2 hours pre-treatment, then 500 nM CPD-002, 500 nM CPD-004 or 100 nM CPD-031 for 4 h or 2 h) | cyclin D1, cyclin D2, cyclin D3, CDK4 and CDK6 protein levels ([3]; indicated concentrations, 16 hours) | downstream Rb phosphorylation and cleaved caspase-3 [5] | cell viability (cellular anti-proliferation activity) (Calu-1) | decrease of degradation potency versus corresponding active compound [1] [fold] | degradation potencies compared with corresponding active heterobifunctional compounds ([3]; 16 hours) | decrease of cellular anti-proliferation activity versus corresponding active compound (Calu-1 cells) [fold]
1 | 30 to 50 | > 4.70 | 5.03 | CC(=O)c1c(C)c2cnc(Nc3ccc(N4CCN(CC(=O)NCCOCCOCCOCCOCCOCCNc5ccc(C(=O)Nc6nccs6)c(C)c5)CC4)cn3)nc2n(C2CCCC2)c1=O [CPD-004, 4-((1-(4-(6-((6-Acetyl-8-cyclopentyl-5-methyl-7-oxo-7,8-dihydropyrido[2,3-d]pyrimidin-2-yl)amino)pyridin-3-yl)piperazin-1-yl)-2-oxo-6,9,12,15,18-pentaoxa-3-azaicosan-20-yl)amino)-2-methyl-N-(thiazol-2-yl)benzamide] | A (protein percentage degradation >=80%) | particularly effective | reduced cyclin D1, cyclin D2, cyclin D3, CDK4 and CDK6 protein levels in a concentration-dependent manner | diminished the cyclin D degradation effect | reduced cyclin D1, cyclin D2, cyclin D3, CDK4 and CDK6 protein levels in a concentration-dependent manner | inhibited downstream Rb phosphorylation and induced cleaved caspase-3 in a concentration-dependent manner | – | – | – | –
2 | < 30 | 4.30 to 4.70 | – | CC(=O)c1c(C)c2cnc(N(C)c3ccc(N4CCN(CC(=O)NCCOCCOCCOCCOCCOCCNc5ccc(C(=O)Nc6nc(C)c(C)s6)c(C)c5)CC4)cn3)nc2n(C2CCCC2)c1=O [CPD-049, 4-((1-(4-(6-((6-Acetyl-8-cyclopentyl-5-methyl-7-oxo-7,8-dihydropyrido[2,3-d]pyrimidin-2-yl)(methyl)amino)pyridin-3-yl)piperazin-1-yl)-2-oxo-6,9,12,15,18-pentaoxa-3-azaicosan-20-yl)amino)-N-(4,5-dimethylthiazol-2-yl)-2-methylbenzamide] | D (protein percentage degradation <30%) | – | – | – | – | – | much weaker cellular anti-proliferation activities | > 100 | much weaker degradation potencies | > 100
3 | < 30 | > 4.70 | – | CC(=O)c1c(C)c2cnc(N(C)c3ccc(N4CCN(CC(=O)NCCOCCOCCOCCOCCOCCNc5ccc(C(=O)Nc6ncc(C)s6)c(C)c5)CC4)cn3)nc2n(C2CCCC2)c1=O [CPD-042, 4-((1-(4-(6-((6-Acetyl-8-cyclopentyl-5-methyl-7-oxo-7,8-dihydropyrido[2,3-d]pyrimidin-2-yl)(methyl)amino)pyridin-3-yl)piperazin-1-yl)-2-oxo-6,9,12,15,18-pentaoxa-3-azaicosan-20-yl)amino)-2-methyl-N-(5-methylthiazol-2-yl)benzamide] | D (protein percentage degradation <30%) | – | – | – | – | – | much weaker cellular anti-proliferation activities | > 10 | much weaker degradation potencies | > 20
